Data: PubChem BioAssay AID212 (DTP/NCI, 2004)
Where “and” joins values, the source holds several entries; their conditions need not be identical. Identical values can stand only once. Inconclusive results are not listed.

System: BDF1 mice, colon carcinoma 38 sc, T/C %
Assay: NCI In Vivo Anticancer Drug Screen. Data for tumor model Colon Carcinoma 38 (subcutaneous) in B6D2F1 (BDF1) mice
Details: endpoint: median tumor weight (est.), higher = larger tumour
Outline: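 T/C readout: treated group (T) measurement over vehicle control group (C) measurement. Endpoint is survival or tumor size in mice bearing a transplanted tumor.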

[1] = dose: 100.0 mg/kg/injection, schedule: Q07DX002 (ip), vehicle: saline with Tween-80
[2] = dose: 200.0 mg/kg/injection, schedule: Q07DX002 (ip), vehicle: saline with Tween-80
[3] = dose: 400.0 mg/kg/injection, schedule: Q07DX002 (ip), vehicle: saline with Tween-80
[4] = dose: 100.0 mg/kg/injection, schedule: Q07DX002 (ip), vehicle: Klucel (hydroxypropylcellulose) (HPC)
[5] = dose: 200.0 mg/kg/injection, schedule: Q07DX002 (ip), vehicle: Klucel (hydroxypropylcellulose) (HPC)
[6] = dose: 400.0 mg/kg/injection, schedule: Q07DX002 (ip), vehicle: Klucel (hydroxypropylcellulose) (HPC)
[7] = dose: 12.5 mg/kg/injection, schedule: Q07DX002 (ip), vehicle: Klucel (hydroxypropylcellulose) (HPC)
[8] = dose: 50.0 mg/kg/injection, schedule: Q07DX002 (ip), vehicle: Klucel (hydroxypropylcellulose) (HPC)
[9] = dose: 12.5 mg/kg/injection, schedule: Q07DX002 (ip), vehicle: saline with Tween-80
[10] = dose: 50.0 mg/kg/injection, schedule: Q07DX002 (ip), vehicle: saline with Tween-80
[11] = dose: 50.0 mg/kg/injection, schedule: Q07DX002 (ip), vehicle: water
[12] = dose: 100.0 mg/kg/injection, schedule: Q07DX002 (ip), vehicle: water
[13] = dose: 200.0 mg/kg/injection, schedule: Q07DX002 (ip), vehicle: water
[14] = dose: 400.0 mg/kg/injection, schedule: Q07DX002 (ip), vehicle: water
[15] = dose: 25.0 mg/kg/injection, schedule: Q07DX002 (ip), vehicle: Klucel (hydroxypropylcellulose) (HPC)

O=C(N[C@H](CO)[C@H](O)c1ccc([N+](=O)[O-])cc1)C(Cl)Cl
T/C [1]: 60 % of control | T/C (dose: 112.0 mg/kg/injection, schedule: Q07DX002 (ip), vehicle: saline with Tween-80): 72 % of control | T/C [2]: 91 % of control | T/C (dose: 225.0 mg/kg/injection, schedule: Q07DX002 (ip), vehicle: saline + Tween-80 + alcohol): 44 % of control | T/C (dose: 225.0 mg/kg/injection, schedule: Q07DX002 (ip), vehicle: saline with Tween-80): 95 % of control | T/C [3]: 112 % of control | T/C (dose: 450.0 mg/kg/injection, schedule: Q07DX002 (ip), vehicle: saline + Tween-80 + alcohol): 85 % of control | T/C (dose: 450.0 mg/kg/injection, schedule: Q07DX002 (ip), vehicle: saline with Tween-80): 87 % of control and 94 % of control | T/C (dose: 800.0 mg/kg/injection, schedule: Q07DX002 (ip), vehicle: saline with Tween-80): 68 % of control | T/C (dose: 900.0 mg/kg/injection, schedule: Q07DX002 (ip), vehicle: saline + Tween-80 + alcohol): 41 % of control | T/C (dose: 900.0 mg/kg/injection, schedule: Q07DX002 (ip), vehicle: saline with Tween-80): 118 % of control

O=C(O)Cc1cc(O)cc2c(=O)cc(-c3ccccc3)oc12
T/C [4]: 52 % of control | T/C [5]: 63 % of control | T/C [6]: 103 % of control

CN1CCc2c(c3ccccc3c3ccccc23)C1
T/C (dose: 6.25 mg/kg/injection, schedule: Q07DX002 (ip), vehicle: Klucel (hydroxypropylcellulose) (HPC)): 111 % of control | T/C [7]: 93 % of control | T/C [8]: 86 % of control | T/C [4]: 72 % of control

C(=N/NC1=NCCN1)/c1c2ccccc2c(/C=N\NC2=NCCN2)c2ccccc12
T/C (dose: 5.0 mg/kg/injection, schedule: Q07DX002 (ip), vehicle: suspension in saline): 100 % of control | T/C (dose: 10.0 mg/kg/injection, schedule: Q07DX002 (ip), vehicle: suspension in saline): 109 % of control | T/C (dose: 20.0 mg/kg/injection, schedule: Q07DX002 (ip), vehicle: suspension in saline): 110 % of control | T/C (dose: 40.0 mg/kg/injection, schedule: Q07DX002 (ip), vehicle: suspension in saline): 70 % of control

COC1/C=C/O[C@@]2(C)Oc3c(C)c(O)c4c(O)c(cc(O)c4c3C2=O)NC(=O)/C(C)=C\C=C\[C@H](C)C(O)[C@@H](C)[C@@H](O)[C@@H](C)[C@H](OC(C)=O)[C@@H]1C (stereo partly drawn)
T/C [9]: 72 % of control | T/C [10]: 79 % of control | T/C [1]: 84 % of control | T/C [2]: 77 % of control | T/C [3]: 98 % of control

NC(=S)N/N=C\c1ncccc1OCc1cccc(N)c1
T/C (dose: 25.0 mg/kg/injection, schedule: Q07DX002 (ip), vehicle: distilled water + Tween-80): 80 % of control | T/C (dose: 50.0 mg/kg/injection, schedule: Q07DX002 (ip), vehicle: distilled water + Tween-80): 79 % of control | T/C (dose: 100.0 mg/kg/injection, schedule: Q07DX002 (ip), vehicle: distilled water + Tween-80): 78 % of control | T/C (dose: 200.0 mg/kg/injection, schedule: Q07DX002 (ip), vehicle: distilled water + Tween-80): 71 % of control | T/C (dose: 400.0 mg/kg/injection, schedule: Q07DX002 (ip), vehicle: distilled water + Tween-80): 80 % of control

O=C(NO)c1cc(O)c(O)c(O)c1
T/C [11]: 80 % of control | T/C [12]: 70 % of control | T/C [13]: 68 % of control | T/C [14]: 83 % of control | T/C (dose: 800.0 mg/kg/injection, schedule: Q07DX002 (ip), vehicle: water): 40 % of control

O=C(NO)c1ccc(O)c(O)c1
T/C [11]: 88 % of control | T/C [12]: 92 % of control | T/C [13]: 85 % of control | T/C [14]: 48 % of control

O=c1n(CC2CO2)c(=O)n(CC2CO2)c(=O)n1CC1CO1 (stereo not drawn)
T/C (dose: 12.0 mg/kg/injection, schedule: Q07DX002 (ip), vehicle: saline with Tween-80): 121 % of control | T/C [9]: 170 % of control | T/C (dose: 12.5 mg/kg/injection, schedule: Q07DX002 (ip), vehicle: suspension in saline): 101 % of control and 88 % of control and 89 % of control | T/C (dose: 25.0 mg/kg/injection, schedule: Q07DX003 (ip), vehicle: saline): 43 % of control | T/C [10]: 119 % of control and 102 % of control | T/C (dose: 50.0 mg/kg/injection, schedule: Q07DX002 (ip), vehicle: suspension in saline): 66 % of control and 42 % of control and 62 % of control | T/C (dose: 50.0 mg/kg/injection, schedule: Q07DX003 (ip), vehicle: saline): 36 % of control | T/C [1]: 42 % of control and 65 % of control | T/C (dose: 100.0 mg/kg/injection, schedule: Q07DX002 (ip), vehicle: suspension in saline): 81 % of control | T/C (dose: 200.0 mg/kg/injection, schedule: Q07DX002 (ip), vehicle: suspension in saline): 81 % of control

CCc1ccccc1N1CCN(C(=O)c2cc(OC)c(OC)c(OC)c2)CC1
T/C (dose: 12.5 mg/kg/injection, schedule: Q07DX003 (ip), vehicle: Klucel (hydroxypropylcellulose) (HPC)): 92 % of control | T/C (dose: 25.0 mg/kg/injection, schedule: Q07DX003 (ip), vehicle: Klucel (hydroxypropylcellulose) (HPC)): 96 % of control | T/C (dose: 50.0 mg/kg/injection, schedule: Q07DX003 (ip), vehicle: Klucel (hydroxypropylcellulose) (HPC)): 47 % of control | T/C (dose: 100.0 mg/kg/injection, schedule: Q07DX003 (ip), vehicle: Klucel (hydroxypropylcellulose) (HPC)): 64 % of control | T/C (dose: 200.0 mg/kg/injection, schedule: Q07DX003 (ip), vehicle: Klucel (hydroxypropylcellulose) (HPC)): 54 % of control | T/C (dose: 400.0 mg/kg/injection, schedule: Q07DX003 (ip), vehicle: Klucel (hydroxypropylcellulose) (HPC)): 13 % of control

CC1CN1C(=O)NCCCCCCNC(=O)N1CC1C (stereo not drawn)
T/C (dose: 5.0 mg/kg/injection, schedule: Q07DX003 (ip), vehicle: Klucel (hydroxypropylcellulose) (HPC)): 73 % of control and 90 % of control | T/C (dose: 20.0 mg/kg/injection, schedule: Q07DX003 (ip), vehicle: Klucel (hydroxypropylcellulose) (HPC)): 15 % of control and 34 % of control | T/C (dose: 40.0 mg/kg/injection, schedule: Q07DX003 (ip), vehicle: Klucel (hydroxypropylcellulose) (HPC)): 34 % of control

O=S(=O)(SC(S(=O)(=O)c1ccccc1)S(=O)(=O)c1ccccc1)c1ccccc1
T/C [15]: 174 % of control | T/C [8]: 199 % of control | T/C [4]: 113 % of control | T/C [6]: 115 % of control

COc1cccc2c1C(=O)c1c(O)c3c(c(O)c1C2=O)C[C@@](O)(C(=O)CO)C[C@@H]3OC1CC(N)CC(C)O1 (stereo partly drawn)
T/C (dose: 0.75 mg/kg/injection, schedule: Q07DX002 (ip), vehicle: water): 93 % of control | T/C (dose: 1.5 mg/kg/injection, schedule: Q07DX002 (ip), vehicle: water): 110 % of control | T/C (dose: 3.0 mg/kg/injection, schedule: Q07DX002 (ip), vehicle: water): 25 % of control

O=C/C(Cl)=C(/Cl)C(=O)O
T/C (dose: 5.0 mg/kg/injection, schedule: Q07DX002 (ip), vehicle: saline with Tween-80): 63 % of control | T/C (dose: 10.0 mg/kg/injection, schedule: Q07DX002 (ip), vehicle: saline with Tween-80): 113 % of control and 92 % of control

c1ccc2c(c1)[As]=c1ccccc1=[As]2 (stereo not drawn)
T/C (dose: 3.0 mg/kg/injection, schedule: Q07DX002 (ip), vehicle: saline): 124 % of control

Cc1cn(C2CC3[O][Sn]([c]4ccccc4)([c]4ccccc4)[O]CC3O2)c(=O)[nH]c1=O (stereo not drawn)
T/C (dose: 12.5 mg/kg/injection, schedule: Q07DX002 (ip), vehicle: saline): 110 % of control | T/C (dose: 25.0 mg/kg/injection, schedule: Q07DX002 (ip), vehicle: saline): 100 % of control | T/C (dose: 50.0 mg/kg/injection, schedule: Q07DX002 (ip), vehicle: saline): 95 % of control | T/C (dose: 100.0 mg/kg/injection, schedule: Q07DX002 (ip), vehicle: saline): 110 % of control | T/C (dose: 200.0 mg/kg/injection, schedule: Q07DX002 (ip), vehicle: saline): 99 % of control

CCCCc1ccc(-n2c(C)c(COC(=O)NC)c(COC(=O)NC)c2C)cc1
T/C [7]: 88 % of control | T/C [15]: 66 % of control | T/C [5]: 60 % of control
